Assay results published in patent US20200245616A1, “A Disinfectant Composition with Extended Antimicrobial Effects” (Siamons International Inc., priority 2017, published 2020).

What follows are substances tested on Trichophyton mentagrophytes ATCC 9533 (assay: AOAC Official Method 961.02 Germicidal Spray Method, fungal conidia on glass carriers). Settings: CMC + QAH, QAH 0.010%; 10 min contact.
Format: cell-based
Source text: (§1) In this method, a series of glass slides (“carriers”) were inoculated with a representative test organism and the carriers were dried under ambient conditions. The dried organisms on the surface of the carrier were then sequentially treated with the composition of the present disclosure in the form of a spray product and were exposed for a pre-determined exposure time. After exposure, the carriers were sequentially transferred to a liquid subculture medium specifically selected to neutralize the composition of the present disclosure and to recover any surviving test organism. The carriers were incubated and visually examined for the presence or absence of growth. […] Required organisms for a disinfection claim include but are not limited to Staphylococcus aureus, Salmonella choleraesuis and Pseudomonas aeruginosa.
(§2) The conidiospore suspension was macerated in a tissue grinder. The suspension was filtered through sterile cotton to remove the hyphae and hyphal fragments.
(§3) Vortex-mixed the inoculum periodically during inoculation of the carriers. • Immediately spread the inoculum uniformly over the majority of the carrier surface using a sterile loop. […] High volume screening studies were conducted in some cases where only 4 organism-inoculated carriers were treated at specified concentrations of CTAB. Once all of the carriers had been inoculated, the carriers were placed in an incubator at 37° C. for 40 minutes until completely dry.
(§4) • After drying, each carrier was sprayed with the respective disinfection formulae 10 times in 10 seconds at a distance of 30 cm. • Timed the treatment interval. Ten (10) minutes after each carrier had been exposed to the disinfectant, the excess liquid was removed and the carriers were transferred in a sequentially timed fashion into the culture tubes containing 20 ml neutralization broth (Letheen Broth with 0.07% Lecithin /0.5% Tween 80) to neutralize the disinfectant. • After the carriers were deposited in the respective culture tubes, the tubes were recapped and the cultures were thoroughly resuspended. • Incubated all neutralization tubes at 28 ±1° C. for 14 days. • After 14 days, the cultures within the tubes were examined for growth. The percentage of the treated carriers showing growth was recorded.

Row | Substance | Trichophyton mentagrophytes Growth Rate
1 | Alkyldimethylbenzylammonium chloride [ADBAC] | 0%

Same assay, conditions: CMC + QAH, QAH 0.100%; 10 min contact

Row | Substance | Trichophyton mentagrophytes Growth Rate
2 | Alkyldimethylbenzylammonium chloride [ADBAC] | 0%

Same assay, conditions: CMC + QAH, QAH 1.000%; 10 min contact

Row | Substance | Trichophyton mentagrophytes Growth Rate
3 | Alkyldimethylbenzylammonium chloride [ADBAC] | 0%

Same assay, conditions: Water + QAH, QAH 0.010%; 10 min contact

Row | Substance | Trichophyton mentagrophytes Growth Rate
4 | Alkyldimethylbenzylammonium chloride [ADBAC] | 0%

Same assay, conditions: Water + QAH, QAH 0.100%; 10 min contact

Row | Substance | Trichophyton mentagrophytes Growth Rate
5 | Alkyldimethylbenzylammonium chloride [ADBAC] | 0%

Same assay, conditions: Water + QAH, QAH 1.000%; 10 min contact

Row | Substance | Trichophyton mentagrophytes Growth Rate
6 | Alkyldimethylbenzylammonium chloride [ADBAC] | 0%

Each substance was assayed on Aspergillus niger ATCC 6275 in the same assay as above. Settings: CMC + QAH, QAH 0.010%; 10 min contact.
Format: cell-based
Source text: as §1, §2, §3, §4

Row | Substance | Aspergillus niger Growth Rate
7 | Alkyldimethylbenzylammonium chloride [ADBAC] | 100%

Same assay, conditions: CMC + QAH, QAH 0.100%; 10 min contact

Row | Substance | Aspergillus niger Growth Rate
8 | Alkyldimethylbenzylammonium chloride [ADBAC] | 0%

Same assay, conditions: CMC + QAH, QAH 1.000%; 10 min contact

Row | Substance | Aspergillus niger Growth Rate
9 | Alkyldimethylbenzylammonium chloride [ADBAC] | 0%

Same assay, conditions: Water + QAH, QAH 0.010%; 10 min contact

Row | Substance | Aspergillus niger Growth Rate
10 | Alkyldimethylbenzylammonium chloride [ADBAC] | 100%

Same assay, conditions: Water + QAH, QAH 0.100%; 10 min contact

Row | Substance | Aspergillus niger Growth Rate
11 | Alkyldimethylbenzylammonium chloride [ADBAC] | 100%

Same assay, conditions: Water + QAH, QAH 1.000%; 10 min contact

Row | Substance | Aspergillus niger Growth Rate
12 | Alkyldimethylbenzylammonium chloride [ADBAC] | 0%

These substances were tested on Penicillium variable ATCC 32333 in the same assay as above. Settings: CMC + QAH, QAH 0.010%; 10 min contact.
Format: cell-based
Source text: as §1, §2, §3, §4

Row | Substance | Penicillium variable Growth Rate
13 | Alkyldimethylbenzylammonium chloride [ADBAC] | 0%

Same assay, conditions: CMC + QAH, QAH 0.100%; 10 min contact

Row | Substance | Penicillium variable Growth Rate
14 | Alkyldimethylbenzylammonium chloride [ADBAC] | 0%

Same assay, conditions: CMC + QAH, QAH 1.000%; 10 min contact

Row | Substance | Penicillium variable Growth Rate
15 | Alkyldimethylbenzylammonium chloride [ADBAC] | 0%

Same assay, conditions: Water + QAH, QAH 0.010%; 10 min contact

Row | Substance | Penicillium variable Growth Rate
16 | Alkyldimethylbenzylammonium chloride [ADBAC] | 0%

Same assay, conditions: Water + QAH, QAH 0.100%; 10 min contact

Row | Substance | Penicillium variable Growth Rate
17 | Alkyldimethylbenzylammonium chloride [ADBAC] | 0%

Same assay, conditions: Water + QAH, QAH 1.000%; 10 min contact

Row | Substance | Penicillium variable Growth Rate
18 | Alkyldimethylbenzylammonium chloride [ADBAC] | 0%

These substances were tested on Pseudomonas aeruginosa ATCC 15442 (assay: AOAC Official Method 961.02 Germicidal Spray Method, bacteria on glass carriers). Settings: CMC + QAH, QAH 0.010%; 10 min contact.
Format: cell-based
Source text: as §1
Method Adapted to the Preparation of Bacteria Cultures from −80° C. Freshly Recovered Stock. […] Added 10 μL of the thawed stock to a tube containing 10 mL synthetic broth and then vortexed to mix. Discarded the rest of cryovial stock. • Incubated the tube at 36 ±1° C. for 24 hours (h). Briefly vortexed the 24 h culture prior to transfer. For this final subculture step, inoculated two 20×150 mm tubes containing 10 mL synthetic broth with […] of the 24 h synthetic broth culture. • Incubated 48 h at 36±1° C. Using a Vortex-style mixer, mixed synthetic broth test cultures 3-4 seconds and let stand 10 minutes at room temperature before continuing. Removed the upper portion of each culture, leaving behind any debris or clumps, and transferred to a sterile tube. Titrated the culture by plating on synthetic agar plates, and diluted to 5×10^8 Colony Forming Units (CFU) per mL.
High volume screening studies were conducted in some cases where only 4 organism-inoculated carriers were treated at specified concentrations of CTAB. Vortex-mixed the inoculum periodically during inoculation of the carriers. • Immediately spread the inoculum uniformly over the majority of the carrier surface using a sterile loop. […] Covered dish immediately and repeated operation until 64 carriers had been prepared for the test. Once all of the carriers had been inoculated, placed in incubator at 37° C. for 40 minutes until dry.
• After the test organisms were dried on the surface of the carrier, each carrier was sprayed with the respective disinfection formulae 10 times in 10 seconds at a distance of 30 cm. • Treatment interval was timed. Ten (10) minutes after each carrier had been sprayed by the disinfectant, the excess liquid was removed and the carriers were transferred in a sequentially timed fashion into the culture tubes containing 20 ml neutralizer (Letheen Broth with 0.07% Lecithin/0.5% Tween 80/0.1% Sodium Thiosulfate) to neutralize the disinfectant. […] The percentage of the treated carriers showing growth after 48 hours was recorded.

Row | Substance | Pseudomonas aeruginosa Growth Rate
19 | Alkyldimethylbenzylammonium chloride [ADBAC] | 0%

Same assay, conditions: CMC + QAH, QAH 0.100%; 10 min contact

Row | Substance | Pseudomonas aeruginosa Growth Rate
20 | Alkyldimethylbenzylammonium chloride [ADBAC] | 0%

Same assay, conditions: CMC + QAH, QAH 1.000%; 10 min contact

Row | Substance | Pseudomonas aeruginosa Growth Rate
21 | Alkyldimethylbenzylammonium chloride [ADBAC] | 0%

Same assay, conditions: Water + QAH, QAH 0.010%; 10 min contact

Row | Substance | Pseudomonas aeruginosa Growth Rate
22 | Alkyldimethylbenzylammonium chloride [ADBAC] | 0%

Same assay, conditions: Water + QAH, QAH 0.100%; 10 min contact

Row | Substance | Pseudomonas aeruginosa Growth Rate
23 | Alkyldimethylbenzylammonium chloride [ADBAC] | 0%

Same assay, conditions: Water + QAH, QAH 1.000%; 10 min contact

Row | Substance | Pseudomonas aeruginosa Growth Rate
24 | Alkyldimethylbenzylammonium chloride [ADBAC] | 0%

The substances below were run on select bacteria and fungal organisms (assay: Germicidal spray disinfection, summary over the tested organisms). Settings: 0.01% QAH in CMC; 10-minute contact time.
Format: cell-based
Protocol: All experiments were conducted according to the protocol outlined in AOAC Official Method 961.02 (Germicidal Spray Method), which is a carrier-based method used to evaluate disinfection efficacy of aerosol/pump-based spray products and liquid products for registration with regulatory agencies such as the U.S. EPA and Health Canada.
It was expected that if the CTAB was replaced by QAH's of similar structure that the disinfection of selected bacteria and fungal organisms would be similarly achieved. […] In the case of bacteria testing, the experimental procedure was as outlined in Example 1 for disinfection of bacterial cultures. In the case of fungal organisms, the experimental procedure was as outlined in Example 1 for the preparation of fungal cultures.

Row | Substance | effectiveness against the target organisms
25 | Alkyldimethylbenzylammonium chloride [ADBAC] | remarkable effectiveness
